Entries after “also recorded” stand apart in the source; their conditions may differ. Read-outs that look alike come from different tables or passages of the source.
Columns and labels:
[1] = target: T1, parathyroid cell calcium receptor (Homo sapiens, UniProt P41180); assay: mobilization of intracellular Ca2+ in human parathyroid cells; format: cell-based; details: neomycin B 10 or 20 μM, spermine 300 μM, Mg2+ 10 mM
T1 construct: Dissociated parathyroid cells were prepared from a parathyroid adenoma obtained by surgery from a patient with primary hyperparathyroidism; endogenous in cells; host or cells: human parathyroid cells (adenoma or hyperplastic glands from patients)
T1 sequence (P41180 20-1078): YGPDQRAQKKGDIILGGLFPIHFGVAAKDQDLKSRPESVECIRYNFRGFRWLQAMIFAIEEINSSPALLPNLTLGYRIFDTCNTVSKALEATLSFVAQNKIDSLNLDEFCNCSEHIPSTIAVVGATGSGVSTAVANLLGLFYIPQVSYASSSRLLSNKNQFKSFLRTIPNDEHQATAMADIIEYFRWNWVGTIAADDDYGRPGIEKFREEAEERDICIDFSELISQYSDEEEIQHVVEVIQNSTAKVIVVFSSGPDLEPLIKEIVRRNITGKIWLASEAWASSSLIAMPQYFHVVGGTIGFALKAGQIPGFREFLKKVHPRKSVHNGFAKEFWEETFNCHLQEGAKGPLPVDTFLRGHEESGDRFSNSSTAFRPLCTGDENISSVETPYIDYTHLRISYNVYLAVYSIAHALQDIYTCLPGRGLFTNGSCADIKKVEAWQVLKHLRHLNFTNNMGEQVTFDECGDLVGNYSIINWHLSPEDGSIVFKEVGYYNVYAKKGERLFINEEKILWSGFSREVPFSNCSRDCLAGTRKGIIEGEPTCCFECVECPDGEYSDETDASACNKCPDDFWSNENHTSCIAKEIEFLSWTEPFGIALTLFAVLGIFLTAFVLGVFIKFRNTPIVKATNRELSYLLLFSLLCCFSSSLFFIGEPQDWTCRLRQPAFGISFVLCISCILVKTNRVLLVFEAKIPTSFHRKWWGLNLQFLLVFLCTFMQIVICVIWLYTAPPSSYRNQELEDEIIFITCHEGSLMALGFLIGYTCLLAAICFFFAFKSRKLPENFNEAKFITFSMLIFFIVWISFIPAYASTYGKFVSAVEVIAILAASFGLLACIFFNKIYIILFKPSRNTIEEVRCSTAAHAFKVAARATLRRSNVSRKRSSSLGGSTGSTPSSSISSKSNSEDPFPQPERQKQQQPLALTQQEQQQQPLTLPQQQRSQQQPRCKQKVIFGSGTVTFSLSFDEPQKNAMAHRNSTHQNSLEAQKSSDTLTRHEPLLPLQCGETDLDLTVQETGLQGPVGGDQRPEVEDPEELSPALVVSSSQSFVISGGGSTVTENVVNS
Experimental: Human parathyroid glands, were obtained from patients undergoing surgical removal of parathyroid tissue for primary or uremic hyperparathyroidism (uremic HPT), and were treated similarly to bovine tissue.
The cells were then pelleted, resuspended in the same buffer, but lacking the ester, and incubated a further 15 minutes at 37° C. The cells were subsequently washed twice with PCB containing 0.5 mM CaCl2 and 0.5% BSA and maintained at room temperature (about 20° C.). Immediately before use, the cells were diluted five-fold with prewarmed 0.5 mM CaCl2 -PCB to obtain a final BSA concentration of 0.1%. The concentration of cells in the cuvette used for fluorescence recording was 1-2×10^6 /ml.

[2] = system: osteoclast calcium receptor; assay: [Ca2+]i in indo-1-loaded rat osteoclasts; format: cell-based
bovine parathyroid cells = assay: PTH secretion from bovine parathyroid cells; format: cell-based; details: bovine parathyroid cells
human parathyroid cells = assay: PTH secretion from human parathyroid cells; format: cell-based; details: human (adenoma) parathyroid cells
Experimental: PTH secretion was measured by first suspending cells in PCB containing 0.5 mM CaCl2 and 0.1% BSA.
For human cells, a commercially available radioimmunoassay kit (INS-PTH; Nichols Institute, Los Angeles, Calif.) which recognizes intact and N-terminal human PTH was used because GW-1 antibody recognizes human PTH poorly.

calcium receptor = target: T2, calcium receptor (Homo sapiens, UniProt P41180); assay: Xenopus oocytes injected with human parathyroid cell mRNA; format: cell-based; details: for effect on Cl- current: oocytes injected with human parathyroid mRNA; for effect in water-injected oocytes: neomycin B 10 mM
T2 sequence (P41180 20-1078): T1 sequence (P41180 20-1078)
Experimental: Oocytes were injected with poly(A)^+ -enriched mRNA from human parathyroid tissue (hyperplastic glands from a case of secondary HPT).
Following incubation, an oocyte was placed into a 100-μl plastic chamber and superfused with MBS at a flow rate of 0.5 ml/min using a peristaltic pump. Test molecules or inorganic polycations were added by rapidly moving the tubing into different buffers. Recording and current-passing electrodes were constructed from thin-wall capillary tubing pulled to a resistance of 1-3 Mohms and filled with 3 M KCl. […] Currents were recorded directly onto a strip chart recorder.
Using this screen allows one to test for an action directly on the calcium receptor. Oocytes expressing the calcium receptor also responded to several molecules active on intact parathyroid cells when screened as follows. […] This offers rather compelling evidence showing that these molecules act on the calcium receptor or on some other protein intimately associated with its function.

serum ionized calcium [3] = assay: serum ionized Ca2+ in rats; format: in vivo, rat; details: NPS R-568 oral
Experimental: Compounds shown to activate the bovine parathyroid cell calcium receptor in vitro were tested for hypocalcemic activity in vivo. Male Sprague-Dawley rats (200 g) were maintained on a low calcium diet for one week prior to receiving test substance or vehicle as control. Blood was collected from the tail vein three hours after the intra-peritoneal administration of NPS 467. […] Serum total calcium, albumin and phosphate were measured by techniques well known in the art.
Rats (male, Sprague-Dawley, 250-300 g) were fed standard rat chow and fasted overnight prior to the experiment. NPS R-467 was suspended in corn oil and administered as a single oral dose through a gavage needle. Three hours later a sample of blood was taken from the tail vein and assessed for ionized Ca^2+ levels.

serum ionized calcium [4] = assay: serum ionized Ca2+ in parathyroidectomized rats; format: in vivo, rat; details: NPS R-467 10 mg/kg i.p., 6 hours; NPS R-568 oral
Excerpt: To determine the primary target tissue upon which NPS R-467 acts to cause a hypocalcemic response, the parathyroid glands in rats were surgically removed. Animals receiving a total parathyroidectomy become hypocalcemic and are largely dependent upon dietary calcium to maintain serum Ca^2+ homeostasis.

serum calcitonin = serum calcitonin in a human; format: in vivo; details: single oral doses studied
Excerpt: A range of single oral doses was used to assess safety, tolerance, and changes in primary hyperparathyroidism markers (e.g., plasma concentrations of parathyroid hormone and ionized serum calcium) and of serum calcitonin.

serum calcium = assay: hypocalcemic response in thyroidectomized rats; format: in vivo, rat; details: 3 to 100 mg/kg p.o.
Excerpt: In subsequent studies, rats received a thyroidectomy (parathyroid glands intact). This surgical procedure effectively removed the C-cells secreting calcitonin and therefore enabled the relative contributions of PTH and calcitonin to the hypocalcemic effect of this compound to be determined. […] The only difference was that the rate of onset of the hypqcalcemic response was somewhat delayed in thyroidectomized animals. […] Stimulatory effects of this compound on calcitonin secretion increases the rate of onset, but not the extent, of hypocalcemia.

| Structure (SMILES) | effect on [Ca2+]i in human parathyroid cells [1] | effect on [Ca2+]i in human parathyroid cells ([1]; listed as Neomycin B) | effect on [Ca2+]i in human parathyroid cells ([1]; listed as neomycin B) | effect on [Ca2+]i in osteoclasts [2] | effect on response to extracellular Ca2+ in osteoclasts [2] | effect on [Ca2+]i in osteoclasts ([2]; listed as neomycin) | effect on [Ca2+]i in osteoclasts ([2]; listed as neomycin B) | effect on PTH secretion (bovine parathyroid cells) | effect on PTH secretion (human parathyroid cells; listed as Neomycin B) | effect on PTH secretion (human parathyroid cells; listed as neomycin B) | mobilization of intracellular Ca2+ in oocytes (calcium receptor; hexacyclen 135 μM, neomycin 100 μM, NPS 382 5 mM) | effect on Cl- current (calcium receptor; listed as Neomycin B) | effect on Cl- current (calcium receptor; listed as neomycin B) | effect in water-injected oocytes (calcium receptor; listed as Neomycin B) | effect in water-injected oocytes (calcium receptor; listed as neomycin B) | hypocalcemic response after complete nephrectomy (serum ionized calcium [3]; prior complete nephrectomy) | effect on serum Ca2+, oral (serum ionized calcium [3]; rats) | effect on serum ionized Ca2+ in parathyroidectomized rats (serum ionized calcium [4]) | effect on serum calcitonin in human (serum calcitonin) | hypocalcemic response in thyroidectomized rats (serum calcium) |
| --- | --- | --- | --- | --- | --- | --- | --- | --- | --- | --- | --- | --- | --- | --- | --- | --- | --- | --- | --- | --- |
| NC[C@@H]1O[C@H](O[C@H]2[C@@H](O)[C@H](O[C@@H]3[C@@H](O)[C@H](N)C[C@H](N)[C@H]3O[C@H]3O[C@H](CN)[C@@H](O)[C@H](O)[C@H]3N)O[C@@H]2CO)[C@H](N)[C@@H](O)[C@@H]1O [Neomycin] | large increase in [Ca^2+ ]i | not only a transient, but additionally a steady-state increase in [Ca^2+ ]i | transient and sustained increases in [Ca^2+ ]i | failed to evoke any increase in [Ca^2+ ]i; also recorded: Neither neomycin (10 mM) nor spermine (10 or 20 mM) caused increases in [Ca^2+ ]i; also recorded: fail to affect the calcium receptors on C-cells or osteoclasts | did not block the increase in [Ca^2+ ]i | none of these caused any large increase in [Ca^2+ ]i | fail to evoke increases in [Ca^2+ ]i | inhibited PTH secretion to the same extent as extracellular Ca^2+ | inhibited PTH secretion from human parathyroid cells | inhibit PTH secretion | also effective | evoked oscillatory increases in the Cl^- | evokes oscillating increases in the Cl^- | failed to elicit a response in five water-injected oocytes | failed to cause any change in the current |  |  |  |  |  |
| COc1cccc([C@@H](C)NCCCc2ccccc2Cl)c1 [NPS R-568, (R)-(+)-N-[3-(2-chlorophenyl)propyl]-α-methyl-3-methoxybenzylamine] |  |  |  |  |  |  |  |  |  |  |  |  |  |  |  | only marginally affected | dose-dependent decrease in the levels of serum Ca^2+ | fails to elicit a hypocalcemic response | no apparent change in serum calcitonin | hypocalcemic response equal in magnitude to that produced in sham-operated animals |
